Reference: patent EP2948433B1, “ATGLISTATIN AS LIPASE INHIBITOR” (Technische Universität Graz, priority 2013, dated 2014)
Where a name gives a salt, the structure may show the parent alone. One block for each molecule: values may come before it.

How the values were obtained:
ATGL = settings: expressed ATGL (Jenkins 2004) or native ATGL in hepatocytes (Chung 2008); cited from earlier work
[1] = Injection of the water soluble inhibitor in mice, release of FFA and glycerol; type: in vivo
Description: (§1) As some compounds are not readily soluble in water, it may be preferable to prepare a more readily soluble form of a compound. A possible way to increase the water solubility of a compound is to generate its hydrochloride. The compound is suspended in dest. H2O and a 25 % HCl-solution is added until the solid is completely dissolved. Next, 1 M Tris-HCl-buffer is added to bring the solution to pH 7.4. This procedure yields usually good results. However, in some cases the compound may not be soluble or may precipitate when the pH of the solution elevated to bring it close to neutral pH. In this case, an alternative procedure is provided. The compound is suspended in diethyl ether and dichloromethane is added until the solid is completely dissolved. Then hydrochloric acid is added and all of the solvents are removed under reduced pressure and dried on high vacuum. The resulting colourless oil is water soluble. This procedure was followed with Atglistatin (compound 4) where NMR confirmed the structure of Atglistatin hydrochloride. The water soluble inhibitor may be injected in mice and its impact on the release of free fatty acids (FFA) and glycerol, measured.
Atglistatin (compound 4) was administrated orally by gavage in olive oil (200 µl) or by IP injection. For IP administration, the hydrochloride was generated by the addition of 25% HCl resulting in a water soluble compound. […]

[2] = Water solubility of the hydrochloride; type: physicochemical; settings: hydrochloride obtained as colourless oil
Description: as §1

[3] = In vitro toxicity tests (not specified further); type: cell-based
recombinant ATGL = molecular target: T1, recombinant ATGL (Mus musculus, UniProt Q8BJ56); assay: TG hydrolase activity of E. coli lysates overexpressing recombinant strep-tagged ATGL and CGI-58, radiolabeled triolein substrate; type: biochemical; settings: inhibition of the activity of recombinant ATGL
T1 construct: Strep-tag; made in house; host or cells: E. coli (XL-1), vector pASK-IBA5+; crude lysate supernatant, not purified
T1 sequence (Q8BJ56 1-486): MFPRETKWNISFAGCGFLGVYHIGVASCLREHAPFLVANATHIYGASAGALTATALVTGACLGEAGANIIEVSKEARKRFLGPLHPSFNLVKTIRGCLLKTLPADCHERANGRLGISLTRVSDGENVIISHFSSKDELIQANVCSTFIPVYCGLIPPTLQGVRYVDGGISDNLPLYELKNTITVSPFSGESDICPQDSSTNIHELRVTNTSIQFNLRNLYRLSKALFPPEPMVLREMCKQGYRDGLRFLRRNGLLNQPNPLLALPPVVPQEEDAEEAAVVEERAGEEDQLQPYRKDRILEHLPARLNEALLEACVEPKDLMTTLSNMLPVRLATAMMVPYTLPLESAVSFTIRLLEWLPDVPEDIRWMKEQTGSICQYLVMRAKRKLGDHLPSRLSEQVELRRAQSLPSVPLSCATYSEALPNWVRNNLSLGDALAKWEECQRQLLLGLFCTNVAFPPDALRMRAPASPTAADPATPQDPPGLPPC
Description: • Figure 1. Structure of compounds 1 to 3 (reference) and compound 4 (atglistatin) and effect on ATGL activity. For determination of lipase activity, lysates of E. coli overexpressing recombinant strep-tagged ATGL and CGI-58 were incubated with a substrate containing radiolabeled [9,10-3H(N)]-triolein. Subsequently, FA were extracted and quantified by liquid scintillation counting. Lysates of cells expressing empty vector were set as blank. Inhibitors were solubilized in DMSO and added at the indicated concentrations. DMSO alone was used as negative control. (A) Structure and IC50 values of compounds 1-4. (B) Dose-dependent inhibition of ATGL in the presence of compound 3 and 4. […] (C) Lineweaver-Burk plots for kinetic analysis of ATGL inhibition. Experiments were performed at varying concentrations of substrate (0.05 - 3 mM) in presence and absence of compound 4 (Atglistatin). […] Data are presented as mean +/-S.D. of triplicate determinations. Data for compound 4 are representative for at least three independent experiments. • Figure 2. Selectivity of Atglistatin. Lipase activity of ATGL, HSL, lipoprotein lipase, and pancreatic lipase was determined using triolein as substrate. MGL activity was detected in the presence of rac-(1,3)-monooleoylglycerol as substrate. Inhibitors were solubilized in DMSO and added at the indicated concentrations. DMSO alone was used as negative control. (A) Dose-dependent inhibition of TG hydrolase activity in WAT lysates obtained from wild-type and ATGL-ko mice. (B) Inhibition of TG hydrolase activity in wild-type WAT lysates by Atglistatin (40 µM) and by the HSL inhibitor Hi 76-0079 (20 µM). (C) Effect of Atglistatin on murine MGL (purified from E. coli), and murine HSL (overexpressed in COS-7 lysates) activity. (D) Effect of Atglistatin on purified bovine LPL (Sigma) and pancreatic lipase (from porcine pancreas, Sigma). Data are presented as mean +/- S.D. of triplicate determinations and are representative for at least three independent experiments (p < 0.05 **, p < 0.01; ***, p < 0.001). • Figure 3 Inhibition of lipolysis in 3T3-L1 adipocytes and WAT organ cultures. (A,B) Differentiated 3T3 cells were preincubated with the indicated concentrations of Atglistatin. Thereafter, the medium was replaced by DMEM containing 2% BSA (fatty acid free), 10 µM forskolin, in the presence or absence of inhibitors. The release of FA (A) and glycerol (B) in the media was determined using commercial kits. Basal FA and glycerol release (not shown) was barely detectable under the applied conditions. Data are presented as mean +/- SD and are representative for 2 independent experiments. (C-F) Effect of Atglistatin on WAT basal (C, D) and forskolin-stimulated (E, F) lipolysis. Adipose tissue pieces (∼15 mg, n=5 for each concentration) of wild-type mice were cultured for 8 h in DMEM containing 2 % FA-free BSA and the indicated concentrations of Atglistatin. Subsequently, the medium was replaced by identical fresh medium and samples were collected after incubation for another hour in the presence or in the absence of 10 µM forskolin. Atglistatin was solubilized in DMSO and DMSO alone was used as negative control. Data are presented as mean +/- S.D. (*, p < 0.05 **, p < 0.01; ***, p < 0.001). • Figure 4 Inhibition of lipolysis in vivo. […] At the indicated timepoints blood was taken retroorbitally and plasma parameters were measured using commercial kits. […] 8 h after gavage blood was taken retroorbitally and plasma parameters were measured using commercial kits. […]

SMILES: O=C1O/C(=C/Br)CC[C@@H]1c1cccc2ccccc12 [(R)-Bromoenol lactone]
- ATGL inhibitory activity (ATGL): has been demonstrated

SMILES: CN(C)C(=O)Nc1cccc(-c2ccc(N(C)C)cc2)c1 [Atglistatin hydrochloride]
- release of free fatty acids (FFA) and glycerol after injection [1]: reduction in the release of free fatty acids (FFA) and glycerol
- water solubility [2]: water soluble

SMILES: CCOC(=O)c1nn(-c2ccc(OCC)cc2)cc1O [Compound 1, Ethyl 1-(4-ethoxyphenyl)-4-hydroxy-1H-pyrazole-3-carboxylate]
- toxicity in in vitro tests [3]: some limited toxicity

SMILES: CCOC(=O)c1ccn(-c2ccc(OCC)cc2)n1 [Compound 2, Ethyl 1-(4-ethoxyphenyl)-1H-pyrazole-3-carboxylate, reference compound]
- toxicity in in vitro tests [3]: some limited toxicity
- IC50 (recombinant ATGL): 40 µM

- IC50 (recombinant ATGL): 12 µM
SMILES: CCOC(=O)c1cccc(-c2ccc(OCC)cc2)c1 [Compound 3, Ethyl 4'-ethoxybiphenyl-3-carboxylate, reference compound]
